pIC50: −log10 of the molar value. Some results are limits rather than exact numbers.

The subject of the assay is SU-DHL-4 cell line. Briefly: SU-DHL-4 cell proliferation assay (Cell Titer-Glo viability). Type of assay: cell-based. The settings on record: Homo sapiens; cell viability IC50 activity level, DLBCL cell line SU-DHL-4, 120 hours post-treatment; read-out: SU-DHL-4 Act. The method, boiled down: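 SU-DHL-4 cells (500/well, RPMI-1640 + 10% FBS) exposed to 20-point compound dilutions (0.5 nM–10 μM, 0.1% DMSO) for 120 h at 37°C, 5% CO2. Viability measured by Cell Titer-Glo luminescence at t0 and at 120 h. IC50 is the concentration giving 50% of DMSO control, from a four-parameter logistic fit.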
`Cc1cc(CNc2cccc3c2C(=O)N(C2CCC(=O)NC2=O)C3=O)ccc1CN1CCN(c2ccc(C#N)cn2)CC1` (centres unmarked) [Cpd 63, 6-(4-(4-((2-(2,6-dioxopiperidin-3-yl)-1,3-dioxoisoindolin-4-ylamino)methyl)-2-methylbenzyl)piperazin-1-yl)nicotinonitrile]: the pIC50 was greater than 6.70. For `O=C1CCC(N2C(=O)c3cccc(NCc4ccc(CN5CCN(c6ncccc6F)CC5)cc4)c3C2=O)C(=O)N1` (centres unmarked) [Cpd 30, 2-(2,6-dioxopiperidin-3-yl)-4-(4-((4-(3-fluoropyridin-2-yl)piperazin-1-yl)methyl)benzylamino)isoindoline-1,3-dione], the pIC50 is greater than 6.70. The same measure for `Cc1cc(CNc2cccc3c2C(=O)N(C2CCC(=O)NC2=O)C3=O)ccc1CN1CC(n2cccn2)C1` (centres unmarked) [Cpd 77, 4-(4-((3-(1H-pyrazol-1-yl)azetidin-1-yl)methyl)-3-methylbenzylamino)-2-(2,6-dioxopiperidin-3-yl)isoindoline-1,3-dione]: 6.30 to 6.70. Turning to `Cc1cc(CNc2cccc3c2C(=O)N(C2CCC(=O)NC2=O)C3=O)ccc1CN1CCN(C(C)(C)C)CC1` (centres unmarked) [Cpd 68, 4-(4-((4-tert-butylpiperazin-1-yl)methyl)-3-methylbenzylamino)-2-(2,6-dioxopiperidin-3-yl)isoindoline-1,3-dione], the pIC50 was greater than 6.70. Consider `O=C1CCC(N2C(=O)c3cccc(NCc4ccc(CN5CC(N6CC7CCC(C6)O7)C5)cc4F)c3C2=O)C(=O)N1` (centres unmarked) [Cpd 225, 4-(4-((3-(8-oxa-3-azabicyclo[3.2.1]octan-3-yl)azetidin-1-yl)methyl)-2-fluorobenzylamino)-2-(2,6-dioxopiperidin-3-yl)isoindoline-1,3-dione], for which the pIC50 is greater than 6.70.

Regarding `C[C@@H]1CN(c2ccc(C#N)cn2)CCN1Cc1ccc(CNc2cccc3c2C(=O)N(C2CCC(=O)NC2=O)C3=O)cc1` (stereo partly drawn) [Cpd 53, 6-((3R)-4-(4-((2-(2,6-dioxopiperidin-3-yl)-1,3-dioxoisoindolin-4-ylamino)methyl)benzyl)-3-methylpiperazin-1-yl)nicotinonitrile], the pIC50 is greater than 6.70.

As for `Cc1cc(CNc2cccc3c2C(=O)N(C2CCC(=O)NC2=O)C3=O)ccc1CN1CCN(c2ccc(F)cc2F)CC1` (centres unmarked) [Cpd 50, 4-(4-((4-(2,4-difluorophenyl)piperazin-1-yl)methyl)-3-methylbenzylamino)-2-(2,6-dioxopiperidin-3-yl)isoindoline-1,3-dione], the pIC50 is 6.30 to 6.70. The same measure for `CC1(C)CN(c2ccc(Cl)cc2)CCN1Cc1ccc(CNc2cccc3c2C(=O)N(C2CCC(=O)NC2=O)C3=O)cc1` (centres unmarked) [Cpd 34, 4-(4-((4-(4-chlorophenyl)-2,2-dimethylpiperazin-1-yl)methyl)benzylamino)-2-(2,6-dioxopiperidin-3-yl)isoindoline-1,3-dione]: 6.00 to 6.12; for `CCC1CN(Cc2ccc(CNc3cccc4c3C(=O)N(C3CCC(=O)NC3=O)C4=O)cc2)C1` (centres unmarked) [Cpd 112, 2-(2,6-dioxopiperidin-3-yl)-4-(4-((3-ethylazetidin-1-yl)methyl)benzylamino)isoindoline-1,3-dione]: 6.30 to 6.70; for `O=C1CCC(N2C(=O)c3cccc(NCc4ccc(CN5CCN(c6ccc(F)cn6)CC5)cc4)c3C2=O)C(=O)N1` (centres unmarked) [Cpd 32, 2-(2,6-dioxopiperidin-3-yl)-4-(4-((4-(5-fluoropyridin-2-yl)piperazin-1-yl)methyl)benzylamino)isoindoline-1,3-dione]: 6.30 to 6.70. Consider `Cc1cc(CNc2cccc3c2C(=O)N(C2CCC(=O)NC2=O)C3=O)ccc1CN1CC(N2CC3CCC(C2)O3)C1` (centres unmarked) [Cpd 223, 4-(4-((3-(8-oxa-3-azabicyclo[3.2.1]octan-3-yl)azetidin-1-yl)methyl)-3-methylbenzylamino)-2-(2,6-dioxopiperidin-3-yl)isoindoline-1,3-dione], for which the pIC50 was greater than 6.70.

Consider `NC(=O)c1ccc(N2CCN(Cc3ccc(CNc4cccc5c4C(=O)N([C@@H]4CCC(=O)NC4=O)C5=O)cc3)CC2)cn1` [Cpd 91, (R)-5-(4-(4-((2-(2,6-dioxopiperidin-3-yl)-1,3-dioxoisoindolin-4-ylamino)methyl)benzyl)piperazin-1-yl)picolinamide], for which the pIC50 is greater than 6.70. To `Cc1cc(CNc2cccc3c2C(=O)N(C2CCC(=O)NC2=O)C3=O)ccc1CN1CCC(C2CCOCC2)CC1` (centres unmarked) [Cpd 214, 2-(2,6-dioxopiperidin-3-yl)-4-(3-methyl-4-((4-(tetrahydro-2H-pyran-4-yl)piperidin-1-yl)methyl)benzylamino)isoindoline-1,3-dione] belongs greater than 6.70; to `NC(=O)c1cccc(N2CCN(Cc3ccc(CNc4cccc5c4C(=O)N(C4CCC(=O)NC4=O)C5=O)cc3)CC2)n1` (centres unmarked) [Cpd 181, 6-(4-(4-((2-(2,6-dioxopiperidin-3-yl)-1,3-dioxoisoindolin-4-ylamino)methyl)benzyl)piperazin-1-yl)picolinamide], greater than 6.70; to `O=C1CCC(N2C(=O)c3cccc(NCc4ccc(CN5CCN(CC6CC6)CC5)cc4F)c3C2=O)C(=O)N1` (centres unmarked) [Cpd 118, 4-(4-((4-(cyclopropylmethyl)piperazin-1-yl)methyl)-2-fluorobenzylamino)-2-(2,6-dioxopiperidin-3-yl)isoindoline-1,3-dione], greater than 6.70. In the case of `CC1(C)CN(C2CN(Cc3ccc(CNc4cccc5c4C(=O)N(C4CCC(=O)NC4=O)C5=O)cc3)C2)CCO1` (centres unmarked) [Cpd 235, 4-(4-((3-(2,2-dimethylmorpholino)azetidin-1-yl)methyl)benzylamino)-2-(2,6-dioxopiperidin-3-yl)isoindoline-1,3-dione], the pIC50 was 6.12 to 6.30.

As to `CCOC1(C)CCN(Cc2ccc(CNc3cccc4c3C(=O)N(C3CCC(=O)NC3=O)C4=O)cc2)CC1` (centres unmarked) [Cpd 89, 2-(2,6-dioxopiperidin-3-yl)-4-(4-((4-ethoxy-4-methylpiperidin-1-yl)methyl)benzylamino)isoindoline-1,3-dione], the pIC50 was greater than 6.70. For the compound `Cc1cc(CNc2cccc3c2C(=O)N(C2CCC(=O)NC2=O)C3=O)ccc1CN1CCC2(CCC2)C1` (centres unmarked) [Cpd 76, 4-(4-(6-azaspiro[3.4]octan-6-ylmethyl)-3-methylbenzylamino)-2-(2,6-dioxopiperidin-3-yl)isoindoline-1,3-dione], the pIC50 is 6.30 to 6.70.

Turning to `Cc1cc(CNc2cccc3c2C(=O)N(C2CCC(=O)NC2=O)C3=O)ccc1CN1CC2(CCCC2)C1` (centres unmarked) [Cpd 200, 4-(4-(2-azaspiro[3.4]octan-2-ylmethyl)-3-methylbenzylamino)-2-(2,6-dioxopiperidin-3-yl)isoindoline-1,3-dione], the pIC50 was greater than 6.70. Turning to `CC(C)C1CN(Cc2ccc(CNc3cccc4c3C(=O)N(C3CCC(=O)NC3=O)C4=O)cc2)C1` (centres unmarked) [Cpd 113, 2-(2,6-dioxopiperidin-3-yl)-4-(4-((3-isopropylazetidin-1-yl)methyl)benzylamino)isoindoline-1,3-dione], the pIC50 was 6.30 to 6.70. Consider `O=C1CCC(N2C(=O)c3cccc(NCc4ccc(CN5CC(N6CCCC6)C5)cc4)c3C2=O)C(=O)N1` (centres unmarked) [Cpd 216, 2-(2,6-dioxopiperidin-3-yl)-4-(4-((3-(pyrrolidin-1-yl)azetidin-1-yl)methyl)benzylamino)isoindoline-1,3-dione], for which the pIC50 is greater than 6.70.

Take `Cc1cc(CNc2cccc3c2C(=O)N(C2CCC(=O)NC2=O)C3=O)ccc1CN1CCN(c2ccc(C(N)=O)cn2)CC1` (centres unmarked) [Cpd 205, 6-(4-(4-((2-(2,6-dioxopiperidin-3-yl)-1,3-dioxoisoindolin-4-ylamino)methyl)-2-methylbenzyl)piperazin-1-yl)nicotinamide]: the pIC50 was greater than 6.70. `CC(C)(C)OC1CCN(Cc2ccc(CNc3cccc4c3C(=O)N(C3CCC(=O)NC3=O)C4=O)c(F)c2)CC1` (centres unmarked) [Cpd 143, 4-(4-((4-tert-butyoxypiperidin-1-yl)methyl)-2-fluorobenzylamino)-2-(2,6-dioxopiperidin-3-yl)isoindoline-1,3-dione]: the pIC50 is greater than 6.70. The same measure for `O=C1CCC(N2C(=O)c3cccc(NCc4ccc(CN5CC6(CCCCC6)C5)cc4)c3C2=O)C(=O)N1` (centres unmarked) [Cpd 72, 4-(4-(2-azaspiro[3.5]nonan-2-ylmethyl)benzylamino)-2-(2,6-dioxopiperidin-3-yl)isoindoline-1,3-dione]: 6.30 to 6.70; for `O=C1CCC(N2C(=O)c3cccc(NCc4ccc(CN5CCN(c6nnc(C(F)(F)F)s6)CC5)cc4F)c3C2=O)C(=O)N1` (centres unmarked) [Cpd 177, 2-(2,6-dioxopiperidin-3-yl)-4-(2-fluoro-4-((4-(5-(trifluoromethyl)-1,3,4-thiadiazol-2-yl)piperazin-1-yl)methyl)benzylamino)isoindoline-1,3-dione]: greater than 6.70. `O=C1CCC(N2C(=O)c3cccc(NCc4ccc(CN5CCC(N6CCCS6(=O)=O)CC5)cc4F)c3C2=O)C(=O)N1` (centres unmarked) [Cpd 172, 4-((4-((4-(1,1-dioxidoisothiazolidin-2-yl)piperidin-1-yl)methyl)-2-fluorobenzyl)amino)-2-(2,6-dioxopiperidin-3-yl)isoindoline-1,3-dione]: the pIC50 was greater than 6.70. To `C[C@@H]1CN(C2CN(Cc3ccc(CNc4cccc5c4C(=O)N(C4CCC(=O)NC4=O)C5=O)c(F)c3)C2)C[C@H](C)O1` (stereo partly drawn) [Cpd 222, 4-(4-((3-((2R,6S)-2,6-dimethylmorpholino)azetidin-1-yl)methyl)-2-fluorobenzylamino)-2-(2,6-dioxopiperidin-3-yl)isoindoline-1,3-dione] belongs 6.30 to 6.70; to `Cc1cc(CNc2cccc3c2C(=O)N(C2CCC(=O)NC2=O)C3=O)ccc1CN1CCN(c2cccnc2C(N)=O)CC1` (centres unmarked) [Cpd 179, 3-(4-(4-((2-(2,6-dioxopiperidin-3-yl)-1,3-dioxoisoindolin-4-ylamino)methyl)-2-methylbenzyl)piperazin-1-yl)picolinamide], 6.00 to 6.12; to `O=C1CCC(N2C(=O)c3cccc(NCc4ccc(CN5CC6(C5)CC(F)(F)C6)cc4)c3C2=O)C(=O)N1` (centres unmarked) [Cpd 116, 4-(4-((6,6-difluoro-2-azaspiro[3.3]heptan-2-yl)methyl)benzylamino)-2-(2,6-dioxopiperidin-3-yl)isoindoline-1,3-dione], 6.00 to 6.12.

Source of the values: US11358952B2, “Substituted 4-aminoisoindoline-1,3-dione compounds, compositions thereof, and methods of treatment therewith” (Celgene Corporation, priority 2018, dated 2022).
